Measured values taken from patent US20160319277A1, “METHODS OF IMPROVED PROTEIN PRODUCTION USING MIRNAs AND SIRNAs” (THE JOHNS HOPKINS UNIVERSITY, priority 2015, published 2016).

How the values were obtained:
[1] = tested on: NTSR1; test: [3H]NT binding assay on detergent-solubilized cells for functional expression of NTSR1; type: cell-based; conditions: for improvement of functional expression of NTSR1 compared with siN.C.: [3H]NT binding
Procedure: Validation transfections were performed in 12-well plates with miScript™ miRNA mimics (Qiagen, Cat. No. 219600-S0), SilencerSelect™ Negative Control #2 and lethal control siRNA (Qiagen AllStars Cell Death Control™) served as a control for transfection efficiency. Cells were transfected as described for screening except 0.15 million cells were transfected with 40 nM miRNA using 6.25 ul Lipofectamine™ RNAiMax in a total volume of 1 mL of media. 72 hours after transfection, cells were induced with 1 μg/mL tetracycline. 24 hours later, cells from each well were detached with non-enzymatic cell dissociation buffer (Gibco, Cat. No. 13150-016) and washed twice with cold PBS. Cell densities and viability were determined by trypan blue exclusion using a CEDEX™ cell quantification system (Roche, Mannheim, Germany). Based on the counts, cell densities were adjusted to 0.5 million cells/ml with PBS and then subject to flow cytometry analysis. The remaining cells were pelleted and frozen on dry ice for [^3H]NT binding assays.
The detergents n-Dodecyl-β-D-maltoside (LM), 3-[(3-cholamidopyropyl) dimethylammonio]-1-propane sulfonate (CHAPS) and cholesteryl hemisuccinate Tris salt (CHS) were obtained from Anatrace. Cell pellets from 2 mL of suspension culture were suspended in Tris-glycerol-NaCl buffer. Then the detergents LM, CHAPS and CHS were added to give a final buffer composition of 50 mM TrisHCl pH 7.4, 200 mM NaCl, 30% (v/v) glycerol, 1% (w/v) LM, and 0.6% (w/v) CHAPS and 0.12% (w/v) CHS in a total volume of 0.5 mL. The samples were placed on a rotating mixer at 4° C. for 1 hour. Cell debris and non-solubilized material were removed by ultracentrifugation (TL100 rotor, 60 k rpm, 4° C., 30 min in Optima Max™ bench-top ultracentrifuge, Beckman), and the supernatants containing detergent-solubilized NTSR1 were used to determine the total number of expressed receptors by a detergent-based radio-ligand binding assay (see below).
Tritiated neurotensin agonist [^3H]NT ([3,11-tyrosyl-3,5-^3H(N)]-pyro[…] SEQ ID NO:27) was purchased from Perkin Elmer. Ligand-binding assays with detergent-solubilized receptors were carried out in TEBB assay buffer (50 mM Tris pH 7.4, 1 mM EDTA, 40 μg/mL bacitracin, 0.1% BSA) containing 0.1% (w/v) LM, 0.2% (w/v) CHAPS and 0.04% (w/v) CHS. For one-point assays, receptors were incubated with 2 nM [^3H]NT on ice for 1 hour in a volume of 150 μL. The concentration of [^3H]NT used was at least 5-fold above the apparent dissociation constants for detergent-solubilized NTSR1 to allow high receptor occupancy. Separation of the receptor-ligand complex from free ligand (100 μL) was achieved by centrifugation-assisted gel filtration using Bio-Spin™ 30 Tris columns (BioRad), equilibrated with RDB buffer (50 mM Tris-HCl, pH 7.4, 1 mM EDTA, 0.1% (w/v) LM, 0.2% (w/v) CHAPS, 0.04% (w/v) CHS). Non-specific [^3H]NT binding of 220 dpm was subtracted from total binding to calculate the total amount of receptors in T-REx-293-NTSR1-GFP cells. The number of functional NTSR1 was estimated by specific [^3H]NT binding assuming one ligand-binding site per receptor molecule. The number of cells in the assay was derived by cell counting at cell harvest. This approach led to the calculation of the parameter “receptors/cell”.

[2] = tested on: T-REx-293-NTSR1-GFP cells; test: High-throughput human miRNA mimic library screen, image-based per cell green fluorescence (NTSR1-GFP expression); conditions: per cell green fluorescence intensity; for MAD-based z-score: 72 h after transfection plus 24 h tetracycline induction
Procedure: T-REx-293-NTSR1-GFP cells were screened with a miRNA mimic library (Qiagen) based on Sanger miRBase™ 13.0 and consisting of 875 miRNAs mimics. For transfection, 0.8 pmol of each mimic was spotted to 384 well plate wells (Corning) and 20 μL of serum-free DMEM containing 0.1 μL of Lipofectamine™ RNAiMax (Life Technologies) was then added to each well. This lipid-miRNA mixture was incubated at ambient temperature for 30 min prior to adding 2000 cells in 20 μL of DMEM containing 20% certified FBS (Gibco). Transfected cells were incubated at 37° C. in 5% CO2 for 72 hours and induced with 1 μg/mL tetracycline for 24 hours for NTSR1-GFP expression. Cells were then fixed with 2% paraformaldehyde (Electron Microscopy Sciences), stained with Hoechst™ 33342 (Life Technologies) for 45 minutes and gently washed with PBS. Plates were imaged with an ImageXpress Micro XL™ (Molecular Devices). Total cell number and per cell green fluorescence intensity were calculated using MetaXpress™ software (Molecular Devices) employing the Multi-Wavelength Cell Scoring™ application module. […] A full column of positive control siRNA targeting GFP (GFP-22 siRNA, Qiagen) was also used as on-plate reference for transfection efficiency. The median absolute deviation (MAD)-based z-score was calculated for each sample.

[3] = tested on: CMV-Luc2-HygroHEK293 cell line; test: Validation of miRNAs with luciferase-expressing cells (ONE-Glo / CellTiter-Glo, 12-well); type: cell-based, human; conditions: 40 nM miRNA, 72 h; for improvement of luciferase expression (per cell luciferase activity): 12-well, versus siN.C.
Procedure: CMV-Luc2-HygroHEK293 cell line constitutively expressing luciferase is purchased from Promega. Validation transfections were performed in 12-well plates with miScript miRNA mimics (Qiagen, Cat. No. 219600-S0), SilencerSelect™ Negative Control #2 and lethal control siRNA (Qiagen AllStars Cell Death Control™) served as a control for transfection efficiency. Cells were transfected in duplicates as described above in the screening method with the following modification: 0.1 million cells were transfected with 40 nM miRNA using 6.25 ul Lipofectamine™ RNAiMax in a total volume of 1 mL of media. 72 hours after transfection, 500 μL of ONE-Glo™ Reagent (Promega) was added to one set of replicates for luciferase activity quantification and 500 μL of CellTiter-Glo™ Reagent (Promega) was added to the second set of replicates for viable cell density measurement. All plates were incubated at room temperature for 20 minutes to stabilize luminescent signal and then measured with SpectraMax i3™ plate reader (Molecular Devices). Per cell luciferase production was calculated from overall luciferase activity and viable cell number.

[4] = tested on: HEK-GPC3-hFc cell line; test: Validation of miRNAs with GPC3-hFc-expressing cells (ELISA and cell count); type: cell-based, human; conditions: 40 nM miRNA, 6 days after transfection, versus siN.C.
Procedure: HEK-GPC3-hFc cell line constitutively secreting glypican-3 hFc-fusion protein (GPC3-hFc) was a gift from the National Cancer Institute of the NIH. Cells were grown in DMEM supplemented with 10% FBS in a humidified incubator set at 37° C. and 5% CO2.
Cells were transfected in 12-well plates as described above in the screening method with the following modification: 0.15 million cells were transfected with 40 nM miRNA using 6.25 ul Lipofectamine™ RNAiMax in a total volume of 1 mL of media. 6 days after transfection, cell culture supernatant was collected and cleared using centrifuge for GPC3-hFc concentration determination with ELISA and cells were detached and counted by trypan blue exclusion using a CEDEX™ cell quantification system (Roche, Mannheim, Germany). Per cell GPC3-hFc production can be calculated from overall GPC3-hFc yield and viable cell number.
AffiniPure™ F(ab′)2 Fragment Goat Anti-Human IgG (min X Bov, Ms, Rb Sr Prot, Cat. 109-006-170, Jackson Immunology) was used to coat a 96-well plate at 5 μg/mL in PBS buffer, 50 μL per well, at 4° C. overnight. After the plate was blocked with 2% BSA in PBS buffer, pre-diluted cell culture supernatant was added, and the plate was incubated at room temperature for one hour to allow binding to occur. After the plate was washed twice with PBS containing 0.05% Tween 20, Peroxidase-conjugated AffiniPure™ Goat-anti-uman IgG (Cat. 109-035-098, Jackson Immunology) was added at 1:4000 dilutions, 50 ul/well. Following incubating at room temperature for one hour, the plate was washed 4 times and detected with Peroxidase Substrate System (KPL).

ACCUGGCAUACAAUGUAGAUUU (listed as RNA, chemistry not given here; listed as Homo sapiens) [miR-221-5p, human miRNA mimic]
improvement of functional expression of NTSR1 compared with siN.C. [1]: not associated with enhanced binding activity
Signal relative to negative control (%) [2]: 248%
MAD-based z-score [2]: 5.3

AGUUCUUCAGUGGCAAGCUUUA (listed as RNA, chemistry not given here; listed as Homo sapiens) [miR-22-5p, human miRNA mimic]
improvement of luciferase expression (per cell luciferase activity) [3]: relevant for improving luciferase expression
change of overall GPC3-hFc production [4]: effectively enhanced overall GPC3-hFc
improvement of per cell GPC3-hFc secretion [4]: enhanced per cell GPC3-hFc secretion
Signal relative to negative control (%) [2]: 215%
MAD-based z-score [2]: 4.0

AUCGCUGCGGUUGCGAGCGCUGU (listed as RNA, chemistry not given here; listed as Homo sapiens) [miR-639, human miRNA mimic]
improvement of functional expression of NTSR1 compared with siN.C. [1]: not associated with enhanced binding activity
Signal relative to negative control (%) [2]: 165%
MAD-based z-score [2]: 2.4

CACUGGCUCCUUUCUGGGUAGA (listed as RNA, chemistry not given here; listed as Homo sapiens) [miR-892b, human miRNA mimic]
cell growth (viable cell density) [3]: inhibited cell growth
overall production of luciferase higher than negative control siN.C. [3]: 188%
improvement of luciferase expression (per cell luciferase activity) [3]: 239%
improvement of functional expression of NTSR1 compared with siN.C. [1]: not associated with enhanced binding activity
Signal relative to negative control (%) [2]: 201%
MAD-based z-score [2]: 3.7

CUUUUUGCGGUCUGGGCUUGC (listed as RNA, chemistry not given here; listed as Homo sapiens) [miR-129-5p, human miRNA mimic]
improvement of functional expression of NTSR1 compared with siN.C. [1]: not associated with enhanced binding activity
Signal relative to negative control (%) [2]: 172%
MAD-based z-score [2]: 2.7

UAAGGUGCAUCUAGUGCAGAUAG (listed as RNA, chemistry not given here; listed as Homo sapiens) [miR-18a-5p, human miRNA mimic]
improvement of luciferase expression (per cell luciferase activity) [3]: relevant for improving luciferase expression
improvement of functional expression of NTSR1 compared with siN.C. [1]: improved functional activity levels
change of overall GPC3-hFc production [4]: effectively enhanced overall GPC3-hFc
improvement of per cell GPC3-hFc secretion [4]: enhanced per cell GPC3-hFc secretion
Signal relative to negative control (%) [2]: 149%
MAD-based z-score [2]: 2.0

UAAUACUGUCUGGUAAAACCGU (listed as RNA, chemistry not given here; listed as Homo sapiens) [miR-429, human miRNA mimic]
improvement of luciferase expression (per cell luciferase activity) [3]: relevant for improving luciferase expression
improvement of functional expression of NTSR1 compared with siN.C. [1]: improved functional activity levels
improvement of per cell GPC3-hFc secretion [4]: enhanced per cell GPC3-hFc secretion
Signal relative to negative control (%) [2]: 212%
MAD-based z-score [2]: 4.2

UUGGGGAAACGGCCGCUGAGUG [miR-2110]
improvement of luciferase expression (per cell luciferase activity) [3]: relevant for improving luciferase expression
functional neurotensin receptor molecules per cell ([1]; specific [3H]NT binding, 2 nM): 13.8 million functional neurotensin receptor molecules per cell
improvement of per cell GPC3-hFc secretion [4]: enhanced per cell GPC3-hFc secretion
Signal relative to negative control (%) [2]: 160%
MAD-based z-score [2]: 2.3
